The target of the test is human PAD4 (hPAD4) (Homo sapiens, UniProt Q9UM07). Kind of test: RFMS Human PAD4 Functional Assay. The class given is biochemical. The settings on record: 5 nM hPAD4, 250 μM BAEE. The method, boiled down: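 RapidFire ESI-MS quantification, normalised to a modified-citrulline internal standard, after phenyl glyoxal (final 4 mM) derivatisation of the TCA-quenched reaction. The enzyme (10 nM) sat 30 min with compound (up to 50 μM final) before 500 μM BAEE (as added) started a 90 min, 37 °C reaction. Buffer: HEPES pH 7.5, 50 μM calcium, 5 μM TPEN.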

The mark [1] stands for this setting: hPAD4 RFMS IC50, human PAD4, rapid-fire mass spectrum (RFMS) assay.
[2] abbreviates: human PAD4, rapid-fire mass spectrum (RFMS) assay, read-out: hPAD4 RFMS IC50.

Like-named read-outs stand apart in the source and are kept apart here.

Sequence of human PAD4 (hPAD4) (Q9UM07 whole entry): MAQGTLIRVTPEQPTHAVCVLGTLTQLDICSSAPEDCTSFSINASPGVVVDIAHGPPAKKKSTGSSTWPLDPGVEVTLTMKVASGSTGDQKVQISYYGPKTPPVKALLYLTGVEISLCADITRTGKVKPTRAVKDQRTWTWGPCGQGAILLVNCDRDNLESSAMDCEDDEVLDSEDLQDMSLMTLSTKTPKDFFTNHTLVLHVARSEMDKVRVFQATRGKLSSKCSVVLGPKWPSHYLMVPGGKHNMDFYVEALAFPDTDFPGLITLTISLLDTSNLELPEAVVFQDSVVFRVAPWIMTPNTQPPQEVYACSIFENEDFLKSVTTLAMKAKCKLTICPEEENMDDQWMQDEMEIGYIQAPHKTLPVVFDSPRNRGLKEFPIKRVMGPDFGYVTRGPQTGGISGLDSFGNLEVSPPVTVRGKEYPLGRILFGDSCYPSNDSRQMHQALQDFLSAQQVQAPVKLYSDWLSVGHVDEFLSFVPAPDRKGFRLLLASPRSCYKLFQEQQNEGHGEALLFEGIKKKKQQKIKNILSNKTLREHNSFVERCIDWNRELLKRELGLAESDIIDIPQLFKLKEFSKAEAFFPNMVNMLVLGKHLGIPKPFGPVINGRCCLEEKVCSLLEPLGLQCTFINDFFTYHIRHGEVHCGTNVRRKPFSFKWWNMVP

As a reminder, the IC50 is the concentration needed to halve the response being measured. In turn, `COC(=O)N1CC=C(c2cccc3cc(-c4nc5cc(C(=O)N6C[C@H]7CC[C@@H]6[C@@H]7N)cc(OC)c5n4C)n(CC4CC4)c23)CC1` [Example 221, methyl 4-(2-(5-((1R,4R,7R)-7-amino-2-azabicyclo[2.2.1]heptane-2-carbonyl)-7-methoxy-1-methyl-1H-benzo[d]imidazol-2-yl)-1-(cyclopropylmethyl)-1H-indol-7-yl)-3,6-dihydropyridine-1(2H)-carboxylate] yielded an IC50 under setting [1] of 77 nM.
The compound `C=CC(=O)Nc1cccc(-c2cccc3cc(-c4nc5cc(C(=O)N6C[C@H]7CC[C@@H]6[C@@H]7N)cc(OC)c5n4C)n(CC4CC4)c23)c1` [Example 88, N-[3-(2-{5-[(1R,4R,7R)-7-amino-2-azabicyclo[2.2.1]heptane-2-carbonyl]-7-methoxy-1-methyl-1H-1,3-benzodiazol-2-yl}-1-(cyclopropylmethyl)-1H-indol-7-yl)phenyl]prop-2-enamide] came in with an IC50 under setting [1] of 56 nM.
The same measure, in the same setting: then `CCOCC(=O)N1CCC(c2cccc3cc(-c4nc5cc(C(=O)N6C[C@H]7CC[C@@H]6[C@@H]7N)cc(OC)c5n4C)n(CC4CC4)c23)CC1` [Example 234, 1-(4-(2-(5-((1R,4R,7R)-7-amino-2-azabicyclo[2.2.1]heptane-2-carbonyl)-7-methoxy-1-methyl-1H-benzo[d]imidazol-2-yl)-1-(cyclopropylmethyl)-1H-indol-7-yl)piperidin-1-yl)-2-ethoxyethan-1-one], with 49 nM; and `CCNC(=O)N1CCC(c2cccc3cc(-c4nc5cc(C(=O)N6C[C@H]7CC[C@@H]6[C@@H]7N)cc(OC)c5n4C)n(CC4CC4)c23)CC1` [Example 250, 4-(2-(5-((1R,4R,7R)-7-amino-2-azabicyclo[2.2.1]heptane-2-carbonyl)-7-methoxy-1-methyl-1H-benzo[d]imidazol-2-yl)-1-(cyclopropylmethyl)-1H-indol-7-yl)-N-ethylpiperidine-1-carboxamide], with 8 nM.
With `COc1cc(C(=O)N2C[C@H]3CC[C@@H]2[C@@H]3N)cc2nc(-c3cc4cccc(-c5ccccc5)c4n3CC3CC3)n(C)c12` [compound 186], the IC50 under setting [2] amounted to 299 nM.
The same measure, in the same setting: then `COc1cc(C(=O)N2C[C@H]3CC[C@@H]2[C@@H]3N)cc2nc(-c3cc4cccc(-c5ccc(O)c(CO)c5)c4n3CC3CC3)n(C)c12` [Example 119, ((1R,4R,7R)-7-amino-2-azabicyclo[2.2.1]heptan-2-yl)(2-(1-(cyclopropylmethyl)-7-(4-hydroxy-3-(hydroxymethyl)phenyl)-1H-indol-2-yl)-7-methoxy-1-methyl-1H-benzo[d]imidazol-5-yl)methanone], with 20 nM.
`COc1cc(C(=O)N2C[C@H]3CC[C@@H]2[C@@H]3N)cc2nc(-c3cc4cccc(CCn5cncn5)c4n3CC3CC3)n(C)c12` [Example 29, (1R,4R,7R)-2-{2-[1-(cyclopropylmethyl)-7-[2-(1H-1,2,4-triazol-1-yl)ethyl]-1H-indol-2-yl]-7-methoxy-1-methyl-1H-1,3-benzodiazole-5-carbonyl}-2-azabicyclo[2.2.1]heptan-7-amine] gave an IC50 under setting [1] of 56 nM.
On the same count and under the same terms, next, `COc1cc(C(=O)N2C[C@H]3CC[C@@H]2[C@@H]3N)cc2nc(-c3cc4cccc(-c5ccc(O)c(F)c5)c4n3CC3CC3)n(C)c12` [Example 90, 4-(2-{5-[(1R,4R,7R)-7-amino-2-azabicyclo[2.2.1]heptane-2-carbonyl]-7-methoxy-1-methyl-1H-1,3-benzodiazol-2-yl}-1-(cyclopropylmethyl)-1H-indol-7-yl)-2-fluorophenol]: 45 nM.
On the same count and under the same terms, then `COCC(=O)N1CCC(c2cccc3cc(-c4nc5cc(C(=O)N6C[C@H]7CC[C@@H]6[C@@H]7N)cc(OC)c5n4C)n(CC4CC4)c23)CC1` [Example 230, 1-(4-(2-(5-((1R,4R,7R)-7-amino-2-azabicyclo[2.2.1]heptane-2-carbonyl)-7-methoxy-1-methyl-1H-benzo[d]imidazol-2-yl)-1-(cyclopropylmethyl)-1H-indol-7-yl)piperidin-1-yl)-2-methoxyethan-1-one], with 21 nM.
For the compound `COc1cc(C(=O)N2C[C@H]3CC[C@@H]2[C@@H]3N)cc2nc(-c3cc4cccc(-c5cn(CCO)nn5)c4n3CC3CC3)n(C)c12` (stereo in doubt) [Example 108, 2-{4-[2-(5-{7-amino-2-azabicyclo[2.2.1]heptane-2-carbonyl}-7-methoxy-1-methyl-1H-1,3-benzodiazol-2-yl)-1-(cyclopropylmethyl)-1H-indol-7-yl]-1H-1,2,3-triazol-1-yl}ethan-1-ol], the IC50 under setting [2] was 73 nM.
Regarding `COc1cc(C(=O)N2C[C@H]3CC[C@@H]2[C@@H]3N)cc2nc(-c3cc4cccc(-c5cnn(C)c5)c4n3CC3CC3)n(C)c12` [Example 122, ((1R,4R,7R)-7-amino-2-azabicyclo[2.2.1]heptan-2-yl)(2-(1-(cyclopropylmethyl)-7-(1-methyl-1H-pyrazol-4-yl)-1H-indol-2-yl)-7-methoxy-1-methyl-1H-benzo[d]imidazol-5-yl)methanone], the IC50 under setting [2] is 57 nM.
Consider `COCCCC(=O)N1CCC(c2cccc3cc(-c4nc5cc(C(=O)N6C[C@H]7CC[C@@H]6[C@@H]7N)cc(OC)c5n4C)n(CC4CC4)c23)CC1` [Example 237, 1-(4-(2-(5-((1R,4R,7R)-7-amino-2-azabicyclo[2.2.1]heptane-2-carbonyl)-7-methoxy-1-methyl-1H-benzo[d]imidazol-2-yl)-1-(cyclopropylmethyl)-1H-indol-7-yl)piperidin-1-yl)-4-methoxybutan-1-one], for which the IC50 under setting [1] worked out at 18 nM.
Still for that read-out and setting: next, `CCCc1cccc2cc(-c3nc4cc(C(=O)N5C[C@H]6CC[C@@H]5[C@@H]6N)cc(OC)c4n3C)n(CC3CC3)c12` [Example 5, (1R,4R,7R)-2-{2-[1-(cyclopropylmethyl)-7-propyl-1H-indol-2-yl]-7-methoxy-1-methyl-1H-1,3-benzodiazole-5-carbonyl}-2-azabicyclo[2.2.1]heptan-7-amine]: 187 nM; `COCCC(=O)N1CCC(c2cccc3cc(-c4nc5cc(C(=O)N6C[C@H]7CC[C@@H]6[C@@H]7N)cc(OC)c5n4C)n(CC4CC4)c23)CC1` [Example 236, 1-(4-(2-(5-((1R,4R,7R)-7-amino-2-azabicyclo[2.2.1]heptane-2-carbonyl)-7-methoxy-1-methyl-1H-benzo[d]imidazol-2-yl)-1-(cyclopropylmethyl)-1H-indol-7-yl)piperidin-1-yl)-3-methoxypropan-1-one]: 57 nM.
Turning to `COc1cc(C(=O)N2C[C@H]3CC[C@@H]2[C@@H]3N)cc2nc(-c3cc4cccc(-n5cc(C6CNC6)nn5)c4n3CC3CC3)n(C)c12` [Example 110, (1R,4R,7R)-2-(2-{7-[4-(azetidin-3-yl)-1H-1,2,3-triazol-1-yl]-1-(cyclopropylmethyl)-1H-indol-2-yl}-7-methoxy-1-methyl-1H-1,3-benzodiazole-5-carbonyl)-2-azabicyclo[2.2.1]heptan-7-amine], under setting [2], the IC50 came out at 137 nM.
As for `COc1cc(C(=O)N2C[C@H]3CC[C@@H]2[C@@H]3N)cc2nc(-c3cc4cccc(C5CCC(O)CC5)c4n3CC3CC3)n(C)c12` (stereo partly drawn) [Example 24, 4-(2-{5-[(1R,4R,7R)-7-amino-2-azabicyclo[2.2.1]heptane-2-carbonyl]-7-methoxy-1-methyl-1H-1,3-benzodiazol-2-yl}-1-(cyclopropylmethyl)-1H-indol-7-yl)cyclohexan-1-ol], half-maximal inhibition under setting [1] (IC50) was put at 61 nM.

The record behind these values is patent US20220402950A1, “SUBSTITUTED BENZIMIDAZOLES AS PAD4 INHIBITORS” (BRISTOL-MYERS SQUIBB COMPANY, priority 2018, published 2022).
